Measured values published in patent publication US7045531B1, “Composition comprising a metal chelator and a method of treating amyloidosis by administering the metal chelator” (The General Hospital Corporation, priority 1997, dated 2006).
Like-named read-outs stand apart in the source and are kept apart here. Values belong to the compound of their own block, whether it stands above or below them.

Columns and labels:
Aβ1-42 [1] = molecular target: T1, Aβ1-42 (Homo sapiens, UniProt P05067); assay: Effect of metal chelators on H2O2 production from Aβ1-42; assay type: biochemical; conditions: chelator 200 μM; 1 μM Fe^3+
AD = conditions: twice daily deep intramuscular injections; cited from earlier work
Aβ1-42 [2] = molecular target: T1, Aβ1-42; assay: Modulation of SDS-resistant polymerization of Aβ1-42; assay type: biochemical; conditions: TCEP 100 μM; with and without Cu^2+; over 3 days
Experimental: Solution concentrations of metal ion and H2O2 were 30 μM and 100 μM, respectively. […] Argon was continuously bubbled through the buffer for 2 h (at 20° C.) before the remainder of the incubation components were added.
It is possible that the decreased polymerization may be due to chelation of Cu^2+ by BC, however given the low binding affinity of BC for Cu^2+ compared with Aβ, it seems likely that the chelation of […] by BC prevents it from inducing SDS-resistant Aβ polymerization. Therefore, Aβ may undergo a hydroxyl radical modification that promotes its assembly into SDS-resistant polymers.

[3] = Metal reduction assay, Cu^2+ (BC indicator); assay type: biochemical; conditions: Cu^2+ 10 μM; PBS pH 7.4; 1 hr, 37° C.
Experimental: (§1) Polypeptides (10 μM) or Vitamin C (100 μM), metal ions (10 μM, Fe(NO3)3 or Cu(NO3)2), and reduced metal ion indicators, bathophenanthrolinedisulfonic acid (BP, for Fe^2+, Sigma, 200 μM) or bathocuproinedisulfonic acid (BC, for Cu^+, Sigma, […]), were coincubated in phosphate buffered saline (PBS), pH 7.4, for 1 hr at 37° C. The metal ion solutions were prepared by direct dilution in the buffer from their aqueous stocks purchased from National Institute of Standards and Technology (NIST). Absorbances were then measured at 536 nm (Fe^2+-BP complex) and 483 nm (Cu^+-BC complex), respectively, using a 96-well plate reader (SPECTRAmax 250, Molecular Devices, Calif.). In control samples, both metal ion and indicator were present to determine the background buffer signal. As a further control, both metal ion and peptide were present in the absence of indicator to estimate the contribution of light scattering due to turbidity to the absorbance reading at these wavelengths. The net absorbances (ΔA) at 536 nm or 483 nm were obtained by deducting the absorbances from these controls from the absorbances generated by the peptide and metal in the presence of the respective indicator.

[4] = Metal reduction assay, Fe^3+ (BP indicator); assay type: biochemical; conditions: Fe^3+ 10 μM; PBS pH 7.4; 1 hr, 37° C.
Experimental: as §1, with “The metal reduction assay was performed using a 96-well microtiter plate (Costar) based upon a modification of established protocols (Landers, J. W., et al., Amer. Clin. Path. 29:590 (1958); Landers. J. W. et al., Clinica Chimica Acta 3:329 (1958)). Polypeptides” for “Polypeptides”
The concentrations of reduced metal ions (Fe^2+ or Cu^+) were quantified based on the formula: Fe^2+ or Cu^+ (˜M)=A*10^6/(L*M), where L is the measured equivalent vertical pathlength for a well of 300 μL volume as described in the instrument's specifications manual (0.856 cm for Fe^2+; 1.049 cm for Cu^+); M is the known molecular absorbance (M^−1 cm^−1) which is 7124 (for Fe^2+-BP complex) or 2762 (for Cu^+-BC complex).

[5] = TBARS assay of OH. production by peptides; assay type: biochemical; conditions: 1 μM Fe^3+ or Cu^2+
Experimental: The Thiobarbituric Acid-Reactive Substance (TBARS) assay for incubation mixtures with Fe^3+ or Cu^2+ was performed in a 96-well microtiter format modified from established protocols (Gutteridge et al. Biochim. Biophys. Acta 759: 38–41 (1983)). Aβ peptide species (10 μM) or Vitamin C (100 μM), were incubated with Fe^3+ or Cu^2+ (1 μM) and deoxyribose (7.5 mM, Sigma) in PBS, pH 7.4. Following incubation (37° C., 1 hour), glacial (17 M) acetic acid and 2-thiobarburic acid (1%, w/v in 0.05 M NaOH, Sigma) were added and heated (100° C., 10 min). The final mixtures were placed on ice for 1–3 minutes before absorbances at 532 nm were measured. The net absorbance change for each sample were obtained by deducting the absorbance from a control sample consisting of identical chemical components except for the Vitamin C or Aβ peptides.

[6] = Cu^+ generation / metal reduction (Example 2); assay type: biochemical; conditions: 10 μM in PBS; Cu^2+ 10 μM; 30 minutes, 37° C.
Experimental: This method is modified from a protocol assaying serum copper and iron (Landers, J. W., et al., Amer. J. Clin. Path. 29:590 (1958)). It is based on the fact that there are optimal visible absorption wavelengths of 483 nm and 535 nm for Cu^+ complexed with bathocuproinedisulfonic (BC) anion and Fe^2+ coordinated by bathophenanthrolinedisulfonic (BP) anion, respectively.
Aβ (10 μM in PBS, pH 7.4 or 6.8, as shown) was incubated for 30 minutes (37° C.) in the presence of Cu^2+ 10 μM±Zn^2+ 10 μM). Cu^+ levels (n=3, ±SD) were assayed against a standard curve.

[7] = cited from earlier work; for Kd: physiological pH
[8] = system: Cu^2+-induced Aβ1-40 or Aβ1-42 SDS-resistant polymers; assay: Dissolution of in vitro generated SDS-resistant Aβ polymers; assay type: biochemical, human; conditions: polymers generated at pH 7.4
Aβ1-40 = Aβ1-40 (Homo sapiens, UniProt P05067); conditions: pH 7.4; EDTA chelation
[9] = Aβ metal-capture ELISA, competition analysis of binding to Cu^2+; conditions: pH 7.4; read-out: Kd, high affinity saturable Cu^2+ binding site
Experimental: Aβ1-40 (1.5 ng/well) was incubated (37° C., 2 hr) in the wells of Cu^2+ coated microtiter plates (Xenopore, Hawthorne, N.J.) with increasing concentrations of Cu^2+ (1–100 nM) as described by Moir et al., Journal of Biological Chemistry (submitted). Remaining ligand binding sites on well surfaces were blocked with 2% gelatin in tris-buffered saline (TBS) (3 hr at 37° C.) prior to overnight incubation at room temperature with the anti-Aβ mAb 6E10 (Senetek, Maryland Heights, Mich.). Anti-mouse IgG coupled to horseradish peroxidase was then added to each well and incubated for 3 hr at 37° C. Bound antibodies were detected by a 30 minute incubation with stable peroxidase substrate buffer/3,3′,5,5′-Tetramethyl benzidine (SPSB/TMB) buffer, followed by the addition of 2 M sulfuric acid and measurement of the increase in absorbance at 450 nm.
All assays were performed in triplicate and are means±SD, n=3. […] The affinity of Aβ for Cu^2+ is higher than that for Zn^2+ (Bush, A. I., et al., J. Biol. Chem. 269: 12152 (1994)). […] This is supported by the fact that there is both a pH sensitive and insensitive interaction with different metal ions.

[10] = SDS-resistant polymerization of Aβ peptides with Cu^2+ (Western blot, image analysis); assay type: biochemical; conditions: after 5 d; for conversion of the monomer to dimer / conversion of the monomer to trimer: Cu^2+ 30 μM
Experimental: Following incubation (37° C.), aliquots of each reaction (2 ng peptide) were collected at 0 d, 1 d, 3 d and 5 d and western blotted using anti-Aβ monoclonal antibody 8E10 (FIG. 9). Migration of the molecular size markers are indicated (kDa). […] It should be noted that other means of visualizing and/or determining the presence or absence of polymerization other than western blot analysis may be used. Such other means include but are not limited to density sedimentation by centrifugation of the samples.
As above, electronic images captured using the Fluoro-S Image Analysis System (Bio-Rad, Hercules, Calif.) were analyzed using Multi-Analyst Software (Bio-Rad, Hercules, Calif.).
(0–30 μM) at pH 7.4 and 6.6 and the samples analyzed by Western blot and the signal quantitated using the Fluoro-S Image Analysis System (Bio-Rad, Hercules, Calif.) as previously described.

T1 sequence (P05067 672-713 limits assumed): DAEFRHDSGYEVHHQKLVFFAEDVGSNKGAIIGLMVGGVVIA
Chain of Aβ1-40 (P05067 672-711 limits assumed): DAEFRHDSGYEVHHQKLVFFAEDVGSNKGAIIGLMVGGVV

effect on H2O2 formation by Aβ1-42 (Aβ1-42 [1]): no effect
Compound: CC(=O)N(O)CCCCCNC(=O)CCC(=O)N(O)CCCCCNC(=O)CCC(=O)N(O)CCCCCN [DFO, Desferrioxamine]
side effects (AD): anaemia

Compound: Cl.O=C(O)CCP(CCC(=O)O)CCC(=O)O [TCEP, Tris(2-Carboxyethyl)-Phosphine Hydrochloride]
effect on level of polymerization of Aβ1-42 (Aβ1-42 [2]): significantly reduced the level of polymerization

Compound: rat Aβ1-40: Rat/mouse Aβ1-40 with substitutions R5G, Y10F, H13R (DAEFGHDSGFEVRHQKLVFFAEDVGSNKGAIIGLMVGGVV; Amyloid-beta protein 40; UniProt P12023 672-711, looked up, fragment)
available Cu^2+ reduced [3]: reduced no Cu^2+
available Fe^3+ reduced [4]: did not significantly facilitate the reduction of Fe^3+
OH. generation [5]: did not generate OH.
Cu^2+ reduction / redox reactivity [6]: does not manifest the redox reactivity
KA, zinc, single binding site [7]: 3.8 µM

reversibility of Cu^2+-induced Aβ1-40 aggregation (Aβ1-40): reversible
Compound: O=C(O)CN(CCN(CC(=O)O)CC(=O)O)CC(=O)O [EDTA, ethylenediaminetetra acetic acid]
effect on amount of Aβ1-40 or Aβ1-42 SDS-resistant polymers [8]: less effective

Compound: Aβ1-40: synthetic human Aβ1-40 peptide
Kd [9]: 0.9 nM
conversion of the monomer to dimer ([10]; pH 6.6): 29%
conversion of the monomer to trimer ([10]; pH 6.6): 2%
conversion of the monomer to dimer ([10]; pH 7.4): 42%
conversion of the monomer to trimer ([10]; pH 7.4): 9%
peptide converted to the SDS-resistant dimer ([10]; no metal, pH 6.6, 7.4 or 9.0): Less than 4%
available Cu^2+ reduced [3]: 60%
available Fe^3+ reduced [4]: 12%
Kd ([7]; read-out: KD, high affinity zinc binding, 1:1 (Zn^2+:Aβ)): 107 nM
Kd ([7]; read-out: KD, low affinity zinc binding, 2:1 stoichiometry): 5200 nM
